{"source": "patent US11395828B2", "about": "“Spironolactone aqueous compositions” (CMP DEVELOPMENT LLC, priority 2015, dated 2022)", "key": {"[1]": {"details": "Pramar et al.; cited from earlier work"}, "[2]": {"details": "reported in Pramar et al.; cited from earlier work"}, "[3]": {"details": "added to a standard therapy for adults with severe heart failure; cited from earlier work"}, "[4]": {"assay": "Particle size by laser diffraction", "assay_type": "physicochemical", "details": "spironolactone solid prior to composition manufacture", "protocol": "Particle size measurements were performed on spironolactone (prior to composition manufacture) and on the particulate matter present in the compositions described herein by laser diffraction. The reported particle sizes D(v, 0.1), D(v, 0.5), and D(v, 0.9) relate to the mass median diameter (in μm) of the volume of distribution of the given particles. […] Alternatively, particle size can be estimated using optical microscopy."}, "[5]": {"assay": "Dissolution, USP <711>", "assay_type": "physicochemical", "details": "USP <711> dissolution study", "protocol": "Dissolution was measured in a manner consistent with USP <711> reporting the amount of dissolved spironolactone as a percent of labeled content with an associated relative standard devision (“RSD”)."}, "[6]": {"details": "sorbic acid and sorbate; cited from earlier work"}}, "data": [{"smiles": "CC(=O)S[C@@H]1CC2=CC(=O)CC[C@]2(C)[C@H]2CC[C@@]3(C)[C@@H](CC[C@@]34CCC(=O)O4)[C@H]12", "note": "[Spironolactone]", "values": [{"measurement": "pH at which spironolactone exhibits maximum stability", "setting": "[1]", "result": 4.5}, {"measurement": "aqueous solubility", "setting": "[2]", "result": 28, "unit": "µg/mL"}, {"measurement": "reduction in mortality", "setting": "[3]", "result": 30, "unit": "%"}]}, {"smiles": "CC(=O)S[C@@H]1CC2=CC(=O)CC[C@]2(C)[C@H]2CC[C@@]3(C)[C@@H](CC[C@@]34CCC(=O)O4)[C@H]12", "note": "[micronized spironolactone, spironolactone]", "values": [{"measurement": "particle size D(v, 0.5)", "setting": "[4]", "result": "about 3.64 m"}, {"measurement": "particle size D(v, 0.9)", "setting": "[4]", "result": "about 9.42 m"}, {"measurement": "labeled content dissolved at 5-minutes", "setting": "[5]", "result": "about 90 % of labeled content"}]}, {"smiles": "C/C=C/C=C/C(=O)O", "note": "[sorbic acid]", "values": [{"measurement": "equilibrium pKa-value", "setting": "[6]", "result": "about 4.8"}]}, {"smiles": "CC(=O)S[C@@H]1CC2=CC(=O)CC[C@]2(C)[C@H]2CC[C@@]3(C)[C@@H](CC[C@@]34CCC(=O)O4)[C@H]12", "note": "[unmicronized spironolactone, spironolactone]", "values": [{"measurement": "particle size D(v, 0.1)", "setting": "[4]", "result": 7.47, "unit": "µm"}, {"measurement": "particle size D(v, 0.5)", "setting": "[4]", "result": 18.3, "unit": "µm"}, {"measurement": "particle size D(v, 0.9)", "setting": "[4]", "result": 35.5, "unit": "µm"}, {"measurement": "labeled content dissolved at 5-minutes", "setting": "[5]", "result": "about 50 % of labeled content"}]}]}
